Source: US12427159B2, “Hydroxypyrrolidine-substituted arylsulfonamide compounds with selective activity in voltage-gated sodium channels” (Merck Sharp & Dohme LLC, priority 2019, dated 2025)
Where “and” joins values, the source holds several entries; their conditions need not be identical. Equal entries are not always repeated.

Legend:
human Nav1.7 channels = target: T1, human Nav1.7 channels (Homo sapiens, UniProt Q15858); experiment: IonWorks Quattro automated patch-clamp, inactivated state block of Nav1.7; assay type: cell-based; conditions: human Nav1.7 stably expressed in HEK 293 cells, double-pulse protocol, read-out: potency for the Nav 1.7 sodium ion channel (as measured by IonWorks)
T1 construct: expressed in transfected cells; host or cells: HEK 293
Protocol: (§1) IonWorks® Experimental Procedure
(§2) Compounds were tested on human Nav1.7 and Nav1.5 channels stably expressed in HEK 293 cells. Sodium current measurements on IonWorks Quattro: An automated patch-clamp assay on the IonWorks Quattro platform (Molecular Devices) was used to measure state-dependent inhibition of human Nav1.7 and 1.5 channels. Cells were sealed on a planar substrate using the Population Patch […] (PPC) technology. Electrical access was obtained using both nystatin and amphotericin. A double-pulse protocol was used for the determination of IC50 values for inactivated state block. Nav1.7 and Nav1.5 expressing cells were voltage clamped at −100 mV and −110 mV, respectively. A depolarizing prepulse to −10 mV (Nav1.7) or −30 mV (Nav1.5) for 1000 ms followed by a 10 ms repolarization to −100 mV (Nav1.7) or −110 mV (Nav1.5) was given to generate fractional channel inactivation of ˜ 50%, followed by a 10 ms test pulse to −10 mV (Nav1.7) or −30 mV (Nav1.5) to measure peak current in control conditions and after compound addition. The following recording solutions were used (mM). External: 150 NaCl, 2 CaCl2), 5 KCl, 1 Mg Cl2, 10 HEPES, 12 Dextrose; internal: 120 CsF, 30 CsCl, 10 EGTA, 5 HEPES, 5 NaF, 2 MgCl2.
(§3) For all electrophysiology experiments, offline analysis was used to determine percent inhibition as a function of drug concentration. IC50 values were determined by fitting to the Hill equation.
(§4) The various compounds in Examples 1 through 4 and Tables 1 through 3 exemplified above were assayed for activity and selectivity using the foregoing IonWorks® technique. The results are reported in the following paragraph in a format expressing the identification of the compound with reference Example and compound (e.g. Ex 1-9 is Example 1, compound 9) followed by the observed potency in nM and the ratio of Nav1.7 potency:Nav 1.5 potency as described here. […]

human Nav1.5 channels = target: T2, human Nav1.5 channels (Homo sapiens, UniProt Q14524); experiment: IonWorks Quattro automated patch-clamp, Nav1.5 (selectivity versus Nav1.7); assay type: cell-based; conditions: selectivity Nav1.7 over Nav1.5, both by IonWorks in HEK 293 cells
T2 construct: expressed in transfected cells; host or cells: HEK 293
Protocol: as §1, §2, §3, §4

T1 sequence (Q15858 whole entry): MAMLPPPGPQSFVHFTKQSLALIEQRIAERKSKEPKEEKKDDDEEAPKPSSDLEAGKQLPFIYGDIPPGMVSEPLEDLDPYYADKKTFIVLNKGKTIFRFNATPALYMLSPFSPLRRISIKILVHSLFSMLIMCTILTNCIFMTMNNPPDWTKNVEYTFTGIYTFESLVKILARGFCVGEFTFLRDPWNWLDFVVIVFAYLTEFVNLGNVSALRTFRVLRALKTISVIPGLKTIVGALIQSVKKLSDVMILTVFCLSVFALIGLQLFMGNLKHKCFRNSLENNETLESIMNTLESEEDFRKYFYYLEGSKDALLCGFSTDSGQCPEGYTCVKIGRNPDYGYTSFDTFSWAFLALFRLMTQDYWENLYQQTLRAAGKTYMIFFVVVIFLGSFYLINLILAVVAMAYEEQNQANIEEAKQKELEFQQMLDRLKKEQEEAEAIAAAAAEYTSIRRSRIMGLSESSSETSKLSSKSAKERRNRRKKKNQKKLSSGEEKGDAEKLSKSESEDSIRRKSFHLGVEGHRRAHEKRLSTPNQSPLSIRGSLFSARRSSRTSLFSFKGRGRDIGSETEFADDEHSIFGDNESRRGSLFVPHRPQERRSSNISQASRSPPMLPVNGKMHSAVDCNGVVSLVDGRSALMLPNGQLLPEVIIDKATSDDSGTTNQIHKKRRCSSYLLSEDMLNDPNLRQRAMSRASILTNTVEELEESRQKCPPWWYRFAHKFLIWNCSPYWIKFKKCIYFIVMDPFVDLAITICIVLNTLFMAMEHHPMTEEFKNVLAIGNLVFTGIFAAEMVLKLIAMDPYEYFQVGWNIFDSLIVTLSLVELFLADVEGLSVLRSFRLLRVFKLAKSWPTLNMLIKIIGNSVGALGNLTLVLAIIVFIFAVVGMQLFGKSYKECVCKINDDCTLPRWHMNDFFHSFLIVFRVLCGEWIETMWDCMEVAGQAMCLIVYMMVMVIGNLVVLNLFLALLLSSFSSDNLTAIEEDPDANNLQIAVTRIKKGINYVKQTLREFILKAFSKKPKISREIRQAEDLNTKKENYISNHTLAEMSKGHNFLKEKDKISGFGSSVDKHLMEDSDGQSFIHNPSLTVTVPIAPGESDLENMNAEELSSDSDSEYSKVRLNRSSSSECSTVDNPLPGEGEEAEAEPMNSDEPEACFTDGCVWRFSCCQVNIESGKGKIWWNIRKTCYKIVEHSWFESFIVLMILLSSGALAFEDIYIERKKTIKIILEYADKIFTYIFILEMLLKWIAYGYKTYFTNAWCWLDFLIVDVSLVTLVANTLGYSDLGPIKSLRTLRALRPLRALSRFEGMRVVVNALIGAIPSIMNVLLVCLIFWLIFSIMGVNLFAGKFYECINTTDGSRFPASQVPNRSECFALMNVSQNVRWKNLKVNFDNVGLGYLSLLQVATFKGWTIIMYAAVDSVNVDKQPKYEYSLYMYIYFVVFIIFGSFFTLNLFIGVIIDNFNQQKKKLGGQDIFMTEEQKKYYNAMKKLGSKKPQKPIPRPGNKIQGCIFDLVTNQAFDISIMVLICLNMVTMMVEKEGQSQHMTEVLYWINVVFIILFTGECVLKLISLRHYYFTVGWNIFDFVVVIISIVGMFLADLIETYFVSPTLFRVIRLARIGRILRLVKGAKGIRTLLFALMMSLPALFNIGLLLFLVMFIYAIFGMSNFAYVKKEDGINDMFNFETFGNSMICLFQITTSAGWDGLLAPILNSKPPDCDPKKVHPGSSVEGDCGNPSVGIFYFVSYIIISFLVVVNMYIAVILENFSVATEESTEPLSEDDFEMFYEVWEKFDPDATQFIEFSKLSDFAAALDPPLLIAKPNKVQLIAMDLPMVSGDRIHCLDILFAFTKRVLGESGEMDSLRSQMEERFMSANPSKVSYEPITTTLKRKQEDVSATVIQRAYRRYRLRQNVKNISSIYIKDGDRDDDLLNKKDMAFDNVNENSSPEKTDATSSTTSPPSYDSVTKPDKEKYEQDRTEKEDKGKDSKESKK
T2 sequence (Q14524 whole entry): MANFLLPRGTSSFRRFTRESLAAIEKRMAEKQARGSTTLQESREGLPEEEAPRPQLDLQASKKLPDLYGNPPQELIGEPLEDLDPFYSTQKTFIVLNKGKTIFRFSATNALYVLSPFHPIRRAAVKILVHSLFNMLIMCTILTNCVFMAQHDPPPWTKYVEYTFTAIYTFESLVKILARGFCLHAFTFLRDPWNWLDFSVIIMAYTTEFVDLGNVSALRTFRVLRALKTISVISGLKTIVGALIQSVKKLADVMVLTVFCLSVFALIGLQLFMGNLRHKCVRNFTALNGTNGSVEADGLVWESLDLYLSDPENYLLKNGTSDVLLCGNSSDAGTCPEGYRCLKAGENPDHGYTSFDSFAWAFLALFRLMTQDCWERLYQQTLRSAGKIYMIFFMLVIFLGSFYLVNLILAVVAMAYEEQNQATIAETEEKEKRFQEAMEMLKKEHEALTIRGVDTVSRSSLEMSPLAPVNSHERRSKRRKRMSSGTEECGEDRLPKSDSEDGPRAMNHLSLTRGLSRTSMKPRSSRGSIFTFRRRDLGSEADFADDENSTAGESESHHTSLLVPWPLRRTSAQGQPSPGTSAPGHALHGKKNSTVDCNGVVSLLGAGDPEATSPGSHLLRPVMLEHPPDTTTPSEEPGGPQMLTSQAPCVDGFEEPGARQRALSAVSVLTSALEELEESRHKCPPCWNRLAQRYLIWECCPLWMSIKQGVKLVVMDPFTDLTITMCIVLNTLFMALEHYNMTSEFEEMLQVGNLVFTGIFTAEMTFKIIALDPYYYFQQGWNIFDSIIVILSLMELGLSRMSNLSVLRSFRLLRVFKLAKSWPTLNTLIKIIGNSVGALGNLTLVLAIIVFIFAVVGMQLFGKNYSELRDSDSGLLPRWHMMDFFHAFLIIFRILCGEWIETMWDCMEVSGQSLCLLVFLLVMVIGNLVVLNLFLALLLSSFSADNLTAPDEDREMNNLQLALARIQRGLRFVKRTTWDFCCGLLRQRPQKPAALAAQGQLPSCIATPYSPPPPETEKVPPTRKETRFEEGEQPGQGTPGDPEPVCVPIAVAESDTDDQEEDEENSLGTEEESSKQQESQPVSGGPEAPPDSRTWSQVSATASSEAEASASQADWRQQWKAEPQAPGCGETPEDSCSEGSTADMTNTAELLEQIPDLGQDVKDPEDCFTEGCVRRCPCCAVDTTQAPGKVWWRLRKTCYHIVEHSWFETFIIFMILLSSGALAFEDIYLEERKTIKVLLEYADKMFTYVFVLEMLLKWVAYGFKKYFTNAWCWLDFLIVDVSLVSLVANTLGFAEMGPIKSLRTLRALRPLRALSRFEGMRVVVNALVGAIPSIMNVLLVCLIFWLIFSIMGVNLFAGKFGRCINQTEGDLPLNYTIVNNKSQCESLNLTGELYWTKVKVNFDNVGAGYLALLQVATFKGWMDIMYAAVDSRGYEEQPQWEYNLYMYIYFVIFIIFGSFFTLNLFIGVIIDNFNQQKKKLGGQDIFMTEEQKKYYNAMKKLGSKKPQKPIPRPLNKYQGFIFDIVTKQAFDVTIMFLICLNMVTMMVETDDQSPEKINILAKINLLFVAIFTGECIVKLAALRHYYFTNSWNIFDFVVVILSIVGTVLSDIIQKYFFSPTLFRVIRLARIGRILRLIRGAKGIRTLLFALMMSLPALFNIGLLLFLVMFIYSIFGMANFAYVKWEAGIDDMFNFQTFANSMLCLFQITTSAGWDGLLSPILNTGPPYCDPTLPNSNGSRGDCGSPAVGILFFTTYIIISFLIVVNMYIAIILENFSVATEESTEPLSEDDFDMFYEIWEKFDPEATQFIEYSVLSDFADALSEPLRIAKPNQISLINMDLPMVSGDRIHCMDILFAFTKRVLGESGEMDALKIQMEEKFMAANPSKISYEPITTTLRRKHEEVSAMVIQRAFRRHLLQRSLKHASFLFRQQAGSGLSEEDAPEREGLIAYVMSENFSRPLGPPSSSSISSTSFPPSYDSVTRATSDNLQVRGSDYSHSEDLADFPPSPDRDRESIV

| Structure (SMILES) | IC50 (human Nav1.7 channels) [nM] | ratio of Nav1.7 potency:Nav 1.5 potency (human Nav1.5 channels) |
| --- | --- | --- |
| O=S(=O)(Nc1nccs1)c1cc(Cl)c(NC[C@]2(CC3CCC3)C[C@H](O)CN2)cc1F [Ex1-15, 5-Chloro-4-((((2S,4S)-2-(Cyclobutylmethyl)-4-Hydroxypyrrolidin-2 Yl)Methyl)Amino)-2-Fluoro-N-(Thiazol-2-Yl)Benzenesulfonamide] | 4 | > 7500 |
| O=S(=O)(Nc1nccs1)c1cc(Cl)c(NC[C@]2(CCCc3ccccc3)C[C@H](O)CN2)cc1F [Ex1-29, 5-chloro-2-fluoro-4-((((2S,4S)-4-hydroxy-2-(3-phenylpropyl)-pyrrolidin-2-yl)methyl)amino)-N-(thiazol-2-yl)-benzene-sulfonamide] | 2 | 10500 |
| CC(C)(C)CC[C@@]1(CNc2cc(F)c(S(=O)(=O)Nc3nccs3)cc2Cl)C[C@H](O)CN1 [Ex1-34, 5-chloro-4-((((2S,4S)-2-(3,3-dimethylbutyl)-4-hydroxypyrrolidin-2-yl)methyl)amino)-2-fluoro-N-(thiazol-2-yl) benzenesulfonamide] | 4 | 6750 |
| COc1cccc(C[C@@]2(CNc3cc(F)c(S(=O)(=O)Nc4nccs4)cc3Cl)C[C@H](O)CN2)c1 [Ex1-31, 5-chloro-2-fluoro-4-((((2S,4S)-4-hydroxy-2-(3-methoxybenzyl)pyrrolidin-2-yl)methyl)amino)-N-(thiazol-2-yl) benzenesulfonamide] | 7 | 4714 |
| N#Cc1cccc(C[C@@]2(CNc3cc(F)c(S(=O)(=O)Nc4nccs4)cc3Cl)C[C@H](O)CN2)c1 [Ex2-4, 5-chloro-4-((((2S,4S)-2-(3-cyanobenzyl)-4-hydroxypyrrolidin-2-yl)methyl)amino)-2-fluoro-N-(thiazol-2-yl)benzenesulfonamide] | 11 | 2909 |
| O=S(=O)(Nc1nccs1)c1cc(Cl)c(NC[C@]2(Cc3cccc(F)c3)C[C@H](O)CN2)cc1F [Ex1-33, 5-chloro-2-fluoro-4-((((2S,4S)-2-(3-fluorobenzyl)-4-hydroxypyrrolidin-2-yl)methyl)amino)-N-(thiazol-2-yl) benzenesulfonamide] | 7 | 1714 |
| O=S(=O)(Nc1nccs1)c1cc(Cl)c(NC[C@]2(Cc3ccc(-c4ccccn4)cc3)C[C@H](O)CN2)cc1F [Ex3-2, 5-Chloro-2-Fluoro-4-((((2S,4S)-4-Hydroxy-2-(4-(Pyridin-2-Yl)Benzyl)Pyrrolidin-2-Yl)Methyl)Amino)-N-(Thiazol-2-Yl)Benzenesulfonamide] | 7 | 543 |
| N#Cc1ccc(C[C@@]2(CNc3cc(F)c(S(=O)(=O)Nc4nccs4)cc3Cl)C[C@H](O)CN2)cc1 [Ex2-2, 5-Chloro-4-((((2S,4S)-2-(4-Cyanobenzyl)-4-Hydroxypyrrolidin-2-Yl)Methyl)Amino)-2-Fluoro-N-(Thiazol-2-Yl)Benzenesulfonamide] | 4 | 3000 |
| NCc1ccc(C[C@@]2(CNc3cc(F)c(S(=O)(=O)Nc4nccs4)cc3Cl)C[C@H](O)CN2)cc1 [Ex2-3, 4-((((2S,4S)-2-(4-(Aminomethyl) Benzyl)-4-Hydroxypyrrolidin-2-Yl) Methyl)Amino)-5-Chloro-2-Fluoro-N-(Thiazol-2-Yl)Benzenesulfonamide] | 38 | 868 |

More lines, in order of falling IC50 (human Nav1.7 channels), values ahead:

| IC50 (human Nav1.7 channels) [nM] | Structure (SMILES) | ratio of Nav1.7 potency:Nav 1.5 potency (human Nav1.5 channels) |
| --- | --- | --- |
| 18 | O=S(=O)(Nc1nccs1)c1cc(Cl)c(NC[C@]2(Cc3ccc(-c4ccn[nH]4)cc3)C[C@H](O)CN2)cc1F [Ex4-2, 4-((((2S,4S)-2-(4-(1H-Pyrazol-5-Yl)Benzyl)-4-Hydroxypyrrolidin-2-Yl) Methyl)Amino)-5-Chloro-2-Fluoro-N-(Thiazol-2-Yl)Benzenesulfonamide] | 367 |
| 9 | O=S(=O)(Nc1nccs1)c1cc(Cl)c(NC[C@]2(Cc3ccc(-c4ncco4)cc3)C[C@H](O)CN2)cc1F [Ex3-3, 5-chloro-2-fluoro-4-((((2S,4S)-4-hydroxy-2-(4-(oxazol-2-yl)benzyl)pyrrolidin-2-yl)methyl)amino)-N-(thiazol-2-yl)benzenesulfonamide] | 933 |
| 8 | O=S(=O)(Nc1nccs1)c1cc(Cl)c(NC[C@]2(Cc3ccccc3)C[C@H](O)CN2)cc1F [Ex1-9, 4-((((2S,4S)-2-Benzyl-4-Hydroxypyrrolidin-2-Yl)Methyl)Amino)-5-Chloro-2-Fluoro-N-(Thiazol-2-Yl)Benzenesulfonamide] | 3976 and > 3976 |
| 7 | O=S(=O)(Nc1nccs1)c1cc(Cl)c(NC[C@]2(Cc3cccc(Br)c3)C[C@H](O)CN2)cc1F [Ex1-30, 4-((((2S,4S)-2-(3-bromobenzyl)-4-hydroxypyrrolidin-2-yl)methyl)amino)-5-chloro-2-fluoro-N-(thiazol-2-yl) benzenesulfonamide] | 1220 |
| 4 | O=S(=O)(Nc1nccs1)c1cc(Cl)c(NC[C@]2(Cc3ccc(Br)cc3)C[C@H](O)CN2)cc1F [Ex1-22, 4-((((2S,4S)-2-(4-Bromobenzyl)-4-Hydroxypyrrolidin-2-Yl)Methyl)Amino)-5-Chloro-2-Fluoro-N-(Thiazol-2-Yl)Benzenesulfonamide] | 84 |
| 4 | NCc1cccc(C[C@@]2(CNc3cc(F)c(S(=O)(=O)Nc4nccs4)cc3Cl)C[C@H](O)CN2)c1 [Ex2-5, 4-((((2S,4S)-2-(3-(aminomethyl)benzyl)-4-hydroxypyrrolidin-2-yl)methyl)amino)-5-chloro-2-fluoro-N-(thiazol-2-yl)benzenesulfonamide] | 6250 |
| 3 | O=S(=O)(Nc1nccs1)c1cc(Cl)c(NC[C@]2(CCc3ccccc3)C[C@H](O)CN2)cc1F [Ex1-28, 5-Chloro-2-Fluoro-4-((((2S,4S)-4-Hydroxy-2-Phenethylpyrrolidin-2-Yl)Methyl)-Amino)-N-(Thiazol-2-Yl)Benzenesulfonamide] | 11000 |
| 2 | Cc1cccc(C[C@@]2(CNc3cc(F)c(S(=O)(=O)Nc4nccs4)cc3Cl)C[C@H](O)CN2)c1 [Ex1-32] | 16500 |
